“And” between values parts separate entries of the source, which are not always exact repeats. Equal entries are not always repeated.
Key:
[1] = tested on: NCI-H460 (lung) cancer cell line; experiment: Sulforhodamine B (SRB) growth inhibition assay, NCI-H460; assay type: cell-based, human; conditions: 48 h treatment
From the text: (§1) Cell Lines and Sulforhodamine B (SRB) Assay.
(§2) The sulforhodamine B (SRB) assay was used to assess growth inhibition of human cancer cells, as previously described. DU-145, SK-OV-3, and NCI-H460 cancer cell lines (obtained from ATCC) were maintained in T75 flasks (Corning) using high glucose DMEM supplemented with 10% fetal bovine serum (Gibco)/1% gentamicin sulfate for a maximum of 15 passages. For these experiments, cells were trypsinized, counted, and plated at 7000-8000 cells/well into 96-well plates (Corning) and incubated for 24 h at 37° C. in a humidified incubator in a 5% CO2 atmosphere. Compounds to be tested were dissolved in DMSO to generate a 10 mg/mL stock solution, and serial dilutions added in media to the plates. Doxorubicin (Sigma-Aldrich) and paclitaxel (Tokyo Chemical) were used as positive controls. After a 48 h treatment, the cells were fixed with trichloroacetic acid (10% final concentration), washed, dried, stained with SRB dye, washed to remove excess dye, and dried. SRB dye was solubilized, and absorbances were measured at wavelength 540 nm and normalized to values at wavelength 630 nm using an automated Biotek plate reader.

[2] = target: T1, purified bovine brain tubulin (Bos taurus, UniProt P81947+Q6B856); experiment: Inhibition of tubulin polymerization (turbidimetric, cell-free); assay type: biochemical; conditions: for IC50: 10 μM tubulin, extent of polymerization after 20 min at 30° C., read-out: Inhibition of tubulin polymerization IC50 (μM) ± SD; for inhibition of tubulin polymerization (in words): cell-free assay
T1 construct: purified bovine brain tubulin; from tissue; host or cells: bovine brain
Description: Inhibition of Tubulin Polymerization.
Tubulin polymerization was evaluated in 0.25 mL reaction mixtures (final volume) containing 1 mg/mL (10 μM) purified bovine brain tubulin, 0.8 M monosodium glutamate (pH 6.6), 4% (v/v) dimethyl sulfoxide, 0.4 mM GTP, and different compound concentrations. All components except GTP were preincubated for 15 min at 30° C. in 0.24 mL. The assay mixtures were cooled to 0° C., and 10 μL of 0.01 M GTP was added to each sample. Reaction mixtures were transferred to cuvettes held at 0° C. in Beckman DU-7400 and DU-7500 spectrophotometers equipped with electronic temperature controllers. The temperature was increased to 30° C., over about 30 s, and polymerization was followed turbidimetrically at 350 nm for 20 min.

tubulin = experiment: Colchicine binding assay (inhibition of [3H]colchicine binding to tubulin); conditions: 1.0 μM tubulin, 5.0 μM [3H]colchicine
Description: Colchicine Binding Assay.
Inhibition of [^3H]colchicine binding to tubulin was measured in 0.1 mL reaction mixtures, each containing 1.0 μM tubulin, 5.0 μM [^3H]colchicine (Perkin-Elmer), 5% (v/v) dimethyl sulfoxide, […], and components that stabilize the colchicine binding activity of tubulin (1.0 M monosodium glutamate [adjusted to pH 6.6 with HCl in a 2.0 M stock solution], 0.5 mg/mL bovine serum albumin, 0.1 M glucose-1-phosphate, 1.0 mM MgCl2, and 1.0 mM GTP). […] Reactions were stopped with 2.0 mL of ice-cold water, with the reaction mixtures being placed on ice. Each diluted sample was poured onto a stack of two DEAE-cellulose filters (GE Biomedical), followed by 3 successive 2 mL aliquots of ice-cold water. A reduced vacuum was used to remove excess water from the filters, which were washed three times with 2 mL water and placed into vials containing 5 mL of Biosafe II scintillation cocktail. Samples were counted 18 h later in a Beckman scintillation counter. Samples with inhibitors were compared to samples with no inhibitor, and percent inhibition was determined, correcting all values for the amount of radiolabel bound to the filters in the absence of tubulin.

[3] = tested on: DU-145 (prostate) cancer cell line; experiment: Sulforhodamine B (SRB) growth inhibition assay, DU-145; assay type: cell-based, human; conditions: 48 h treatment
From the text: as §1, §2

[4] = tested on: SK-OV-3 (ovarian) cancer cell line; experiment: Sulforhodamine B (SRB) growth inhibition assay, SK-OV-3; assay type: cell-based, human; conditions: 48 h treatment
From the text: as §1, §2

T1 sequence (Q6B856 whole entry): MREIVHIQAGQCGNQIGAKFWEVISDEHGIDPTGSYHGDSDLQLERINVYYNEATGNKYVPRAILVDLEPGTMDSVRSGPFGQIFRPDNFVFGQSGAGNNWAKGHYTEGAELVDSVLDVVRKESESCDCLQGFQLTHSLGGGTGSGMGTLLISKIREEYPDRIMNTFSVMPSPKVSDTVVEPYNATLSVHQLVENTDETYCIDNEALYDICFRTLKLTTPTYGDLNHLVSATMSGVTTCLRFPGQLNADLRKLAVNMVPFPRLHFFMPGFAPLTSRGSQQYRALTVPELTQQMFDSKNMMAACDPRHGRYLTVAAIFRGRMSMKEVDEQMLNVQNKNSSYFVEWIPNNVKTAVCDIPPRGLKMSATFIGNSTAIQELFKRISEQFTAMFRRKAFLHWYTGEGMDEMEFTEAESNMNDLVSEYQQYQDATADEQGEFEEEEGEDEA
T1 sequence (P81947 whole entry): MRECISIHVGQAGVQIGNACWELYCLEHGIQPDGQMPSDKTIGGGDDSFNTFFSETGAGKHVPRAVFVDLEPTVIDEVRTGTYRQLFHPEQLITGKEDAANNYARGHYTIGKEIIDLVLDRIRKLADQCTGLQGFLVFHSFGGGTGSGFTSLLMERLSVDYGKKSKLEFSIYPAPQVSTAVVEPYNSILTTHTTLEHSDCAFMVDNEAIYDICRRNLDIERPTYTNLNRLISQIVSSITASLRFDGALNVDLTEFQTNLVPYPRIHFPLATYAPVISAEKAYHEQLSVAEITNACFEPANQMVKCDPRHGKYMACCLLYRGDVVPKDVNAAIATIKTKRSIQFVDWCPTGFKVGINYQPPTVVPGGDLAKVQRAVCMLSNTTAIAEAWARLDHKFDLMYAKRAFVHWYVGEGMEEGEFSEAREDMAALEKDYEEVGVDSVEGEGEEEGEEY

Row | SMILES | GI50 ([1]; Homo sapiens, NCI-H460) | IC50 [2] | % Inhibition of colchicine binding ± SD (tubulin; compound at 5 μM) | GI50 ([3]; Homo sapiens, DU-145) | GI50 ([4]; Homo sapiens, SK-OV-3) | GI50 [4] | inhibition of tubulin polymerization (in words) [2] | GI50 [1] | % Inhibition of colchicine binding ± SD (tubulin; compound at 1 μM) | GI50 [3] | % Inhibition of colchicine binding ± SD (tubulin; compound at 0.5 μM)
1 | COc1ccc2c(c1C=O)CCCC=C2c1cc(OC)c(OC)c(OC)c1 [Compound 40, 3-Methoxy-9-(3,4,5-trimethoxyphenyl)-6,7-dihydro-5H-benzo[7]annulene-4-carbaldehyde] | 84.7 nM | 3.2 ± 0.08 µM | 61 ± 3 (5 μM) % | 40.2 nM | 57.2 nM |  |  |  |  |  | 
2 | COc1ccc2c(c1CO)CCCC=C2c1cc(OC)c(OC)c(OC)c1 [Compound 48, (3-Methoxy-9-(3,4,5-trimethoxyphenyl)-6,7-dihydro-5H-benzo[7]annulen-4-yl)methanol] | 62.8 nM | 0.63 ± 0.03 µM | 76 ± 2 (5 μM) % |  | 40.3 nM |  |  |  |  |  | 
3 | CC(=O)O[C@H]1C(=O)[C@@]2(C)[C@H]([C@H](OC(=O)c3ccccc3)[C@]3(O)C[C@H](OC(=O)[C@H](O)[C@@H](NC(=O)c4ccccc4)c4ccccc4)C(C)=C1C3(C)C)[C@]1(OC(C)=O)CO[C@@H]1C[C@@H]2O [Paclitaxel, paclitaxel, reference compound] | 1.76 nM |  |  | 1.47 nM | 1.34 nM |  |  |  |  |  | 
4 | COc1ccc2c(c1O)CCCC(=O)C2(O)c1cc(OC)c(OC)c(OC)c1 (stereo not drawn) [Compound 24, 1,5-Dihydroxy-2-methoxy-5-(3,4,5-trimethoxyphenyl)-5,7,8,9-tetrahydro-6H-benzo[7]annulen-6-one] | 47.6 nM | 1.2 ± 0.1 µM | 72 ± 2 (5 μM) % | 141 nM | 31.4 nM |  |  |  |  |  | 
5 | COc1ccc2c(c1C#N)CCC=C2c1cc(OC)c(OC)c(OC)c1 [Compound 39, 2-Methoxy-5-(3,4,5-trimethoxyphenyl)-7,8-dihydronaphthalene-1-carbonitrile] | 60.5 nM | 0.37 ± 0.08 µM | 73 ± 0.6 (5 μM) % |  |  | 38.4 nM |  |  |  |  | 
6 | COc1ccc2c(c1O)CCCC1=C2c2cc(OC)c(OC)c(OC)c2C1=O [Compound 91, 4-Hydroxy-3,9,10,11-tetramethoxy-6,7-dihydrodibenzo[a,h]azulen-8(5H)-one] | 105 nM | 4.2 ± 0.2 µM | 45 ± 4 (5 μM) % | 32.1 nM | 39.9 nM |  |  |  |  |  | 
7 | COc1cc(C2=CCCCc3c2ccc(OC)c3OCCO)cc(OC)c1OC [Compound 31, 2-((3-Methoxy-9-(3,4,5-trimethoxyphenyl)-6,7-dihydro-5H-benzo[7]annulen-4-yl)oxy)ethan-1-ol] | 855 nM | > 20 µM |  | 3760 nM | 3220 nM |  | loss of inhibitory activity |  |  |  | 
8 | COc1ccc(/C=C\c2cc(OC)c(OC)c(OC)c2)cc1O [CA4, combretastatin A-4, reference compound] |  |  |  |  |  | 4.55 nM |  | 2.23 nM | 84 ± 3% | 3.27 nM | 
9 | COc1ccc2c(c1O)CCCCC2(O)c1cc(OC)c(OC)c(OC)c1 (stereo not drawn) [Compound 23, 2-Methoxy-5-(3,4,5-trimethoxyphenyl)-6,7,8,9-tetrahydro-5H-benzo[7]annulene-1,5-diol] | 173 nM | > 20 µM |  | 33 nM | 394 nM |  | reduced inhibition of tubulin polymerization |  |  |  | 
10 | COc1ccc2c(c1O)CCC(NC(C)=O)C=C2c1cc(OC)c(OC)c(OC)c1 (stereo not drawn) [Compound 69] | 334 nM |  | 0.4 ± 0.6 (5 μM) % | 1200 nM |  |  |  |  |  |  | 
11 | COc1ccc2c(c1O)CCCC(Br)=C2c1cc(OC)c(OC)c(OC)c1 [Compound 33, 8-Bromo-3-methoxy-9-(3,4,5-trimethoxyphenyl)-6,7-dihydro-5H-benzo[7]annulen-4-ol] | 35.3 nM | 0.39 ± 0.06 µM | 88 ± 1 (5 μM) % | 36.2 nM | 22.1 nM |  |  |  |  |  | 
12 | CCCCc1c(OC)ccc2c1CCCC=C2c1cc(OC)c(OC)c(OC)c1 [Compound 20, 4-Butyl-3-methoxy-9-(30,40,50-trimethoxyphenyl)-6,7-dihydro-5H-benzo[7]annulene] | 16100 nM | > 20 µM |  | 12200 nM | 11500 nM |  |  |  |  |  | 
13 | COc1ccc2c(c1O)CCCC=C2c1cc(OC)c(OC)c(OC)c1 [KGP18, 3-Methoxy-9-(3,4,5-trimethoxyphenyl)-6,7-dihydro-5H-benzo[7]annulen-4-ol, reference compound] | 0.0418 nM | ~0.85 µM and 0.85 µM | 95 ± 0.5% | 0.0249 nM | 0.0543 nM |  |  |  | 73 ± 5% |  | 
14 | COc1ccc2c(c1C)CCCC(Br)=C2c1cc(OC)c(OC)c(OC)c1 [Compound 34, 8-Bromo-3-methoxy-4-methyl-9-(3,4,5-trimethoxyphenyl)-6,7-dihydro-5H-benzo[7]annulene] | 449 nM | 4.9 ± 0.1 µM |  | 423 nM | 312 nM |  |  |  | 35 ± 5 (1 μM) % |  | 
15 | COc1cc(C2=CC(O)CCc3c2ccc(OC)c3OC)cc(OC)c1OC (stereo not drawn) [Compound 57, 3,4-Dimethoxy-9-(3,4,5-trimethoxyphenyl)-6,7-dihydro-5H-benzo[7]annulen-7-ol] | 432 nM | 3.8 ± 0.5 µM | 28 ± 4 (5 μM) % | 439 nM | 263 nM |  | reduced inhibition of tubulin polymerization |  |  |  | 
16 | COc1ccc2c(c1O)CC=CC=C2c1cc(OC)c(OC)c(OC)c1 [Compound 88, 3-Methoxy-9-(3,4,5-trimethoxyphenyl)-5H-benzo[7]annulen-4-ol] | 58.1 nM | 0.48 ± 0.08 µM | 95 ± 0.8% | 97.6 nM | 6.9 nM |  |  |  |  |  | 68 ± 1%
17 | COc1cc(C2(O)C=CCCc3c2ccc(OC)c3OC)cc(OC)c1OC (stereo not drawn) [Compound 76, 1,2-Dimethoxy-5-(3,4,5-trimethoxyphenyl)-8,9-dihydro-5H-benzo[7]annulen-5-ol] | 70500 nM | > 20 µM | 0 (5 μM) % | 26000 nM | 27200 nM |  | lack of tubulin activity |  |  |  | 
18 | COc1cccc2c1C(=O)c1c(O)c3c(c(O)c1C2=O)C[C@@](O)(C(=O)CO)C[C@@H]3O[C@H]1C[C@H](N)[C@H](O)[C@H](C)O1 [Doxorubicin, reference compound] | 123 nM |  |  | 134 nM | 78.9 nM |  |  |  |  |  | 
19 | COc1cc(C2CCc3c(ccc(OC)c3OC)C(=O)C2)cc(OC)c1OC (stereo not drawn) [Compound 77, 1,2-Dimethoxy-7-(3,4,5-trimethoxyphenyl)-6,7,8,9-tetrahydro-5H-benzo[7]annulen-5-one] | 2000 nM | > 20 µM | 0 (5 μM) % | 4450 nM | 5770 nM |  | lack of activity |  |  |  | 
20 | COc1ccc2c(c1OC)CCCC1=C2c2cc(OC)c(OC)c(OC)c2C1=O [Compound 93, 3,4,9,10,11-Pentamethoxy-6,7-dihydrodibenzo[a,h]azulen-8(5H)-one] | 650 nM | > 20 µM |  | 3260 nM | 3350 nM |  |  |  |  |  | 
21 | COCCOCCOc1c(OC)ccc2c1CCCC=C2c1cc(OC)c(OC)c(OC)c1 [Compound 28, 3-Methoxy-4-(2-(2-methoxyethoxy)ethoxy)-9-(3,4,5-trimethoxyphenyl)-6,7-dihydro-5H-benzo[7]annulene] | 1900 nM | > 20 µM |  | 5660 nM | 6520 nM |  | loss of inhibitory activity |  |  |  | 

Source: patent publication US10807932B2, “Benzosuberene analogues and related compounds with activity as anticancer agents” (Baylor University, priority 2018, dated 2020)
